28 molecules from US20240254115A1 (ACONDICIONAMIENTO TARRASENSE, priority 2021, published 2024) can be followed below.

One experiment has as its target T1, human σ1 receptor (Homo sapiens, UniProt Q99720).
T1 construct: expressed in transfected cells; host or cells: HEK-293
In words: Human σ1 receptor radioligand assay. Conditions: transfected HEK-293 membranes, 5 nM [3H](+)-pentazocine, 37° C. 120 minutes; + may also stand for 1-50% inhibition at 1 or 10 μM; read-out: Binding σ-1 Ki. In outline: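 Ki was derived from five test concentrations, or % inhibition was measured at a single 1 or 10 μM dose, against 5 nM [3H](+)-pentazocine. Incubation was 120 min at 37° C in 50 mM Tris-HCl pH 8 with 7 μg HEK-293 membranes, and 10 μM haloperidol set non-specific binding. Bound radioactivity was counted after filtration.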

The next experiment deals with T2, human σ2/TMEM97 receptor (Homo sapiens, UniProt Q5BJF2).
T2 construct: expressed in transfected cells; host or cells: HEK-293
In words: Binding assay to human σ2/TMEM97 receptor. Conditions: transfected HEK-293 membranes, 10 nM [3H]-DTG, 25° C. 120 minutes; + may also stand for 1-50% inhibition at 1 or 10 μM; read-out: Binding σ-2 Ki. The essentials:
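Membranes from transfected HEK-293 cells (15 µg) were incubated with 10 nM [3H]-DTG in 50 mM Tris-HCl pH 8.0 for 120 min at 25 °C, with 10 µM haloperidol defining non-specific binding. Filtration and scintillation counting followed. Compounds tested as % inhibition at 1 or 10 µM, or at five concentrations for Ki.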

The Ki is a dissociation constant, usually derived from enzyme kinetics or from competition with a known ligand.

Structures are written as SMILES. Bounds are passed on as bounds.

T2 sequence (Q5BJF2 whole entry): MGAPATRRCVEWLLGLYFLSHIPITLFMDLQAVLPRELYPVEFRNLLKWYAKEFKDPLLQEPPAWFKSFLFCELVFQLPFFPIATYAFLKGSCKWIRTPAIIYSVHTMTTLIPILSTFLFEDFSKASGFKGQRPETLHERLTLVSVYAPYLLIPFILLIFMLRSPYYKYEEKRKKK
T1 sequence (Q99720 whole entry): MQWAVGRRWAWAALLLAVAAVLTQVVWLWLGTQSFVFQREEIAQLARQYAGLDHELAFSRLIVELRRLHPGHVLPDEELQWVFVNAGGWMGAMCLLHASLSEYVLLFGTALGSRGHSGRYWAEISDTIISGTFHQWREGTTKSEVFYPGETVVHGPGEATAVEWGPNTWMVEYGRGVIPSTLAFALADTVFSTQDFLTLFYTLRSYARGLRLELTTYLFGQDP

Consider `CC(C)(C)CCN1CCCC2(CCN(S(=O)(=O)c3ccc(N4CCCC4=O)nc3)CC2)C1` [Example 136, 1-(5-((2-(3,3-Dimethylbutyl)-2,9-diazaspiro[5.5]undecan-9-yl)sulfonyl)pyridin-2-yl)pyrrolidin-2-one], for which the Ki at human σ1 receptor and at human σ2/TMEM97 receptor was below 0.1 µM each time.
In the case of `CC(C)(C)CCN1CCCC2(CCN(S(=O)(=O)c3ccc(N4CCOC4=O)nc3)CC2)C1` [Example 137, 3-(5-((2-(3,3-Dimethylbutyl)-2,9-diazaspiro[5.5]undecan-9-yl)sulfonyl)pyridin-2-yl)oxazolidin-2-one], the Ki at human σ1 receptor and at human σ2/TMEM97 receptor was below 0.1 µM in each case.
`CC(C)(C)CCN1CCC2(CC1)CCN(S(=O)(=O)c1ccc(N3CCOC3=O)nc1)C2` [Example 138, 3-(5-((8-(3,3-Dimethylbutyl)-2,8-diazaspiro[4.5]decan-2-yl)sulfonyl)pyridin-2-yl)oxazolidin-2-one]: the inhibitory constant (Ki) at human σ1 receptor and at human σ2/TMEM97 receptor was below 0.1 µM in each case.
In the case of `CC(C)(C)CCN1CCC2(CC1)CCN(S(=O)(=O)c1ccc(N3CCCC3=O)nc1)C2` [Example 139, 1-(5-((8-(3,3-Dimethylbutyl)-2,8-diazaspiro[4.5]decan-2-yl)sulfonyl)pyridin-2-yl)pyrrolidin-2-one], the inhibition constant Ki at human σ1 receptor and on human σ2/TMEM97 receptor was below 0.1 µM each time.
For `CC(C)(C)CCN1CCC2(CC1)CCN(S(=O)(=O)c1cnc(N3CCOC3=O)c(F)c1)CC2` [Example 140, 3-(5-((9-(3,3-Dimethylbutyl)-3,9-diazaspiro[5.5]undecan-3-yl)sulfonyl)-3-fluoropyridin-2-yl)oxazolidin-2-one], the inhibitory constant (Ki) at human σ1 receptor is 0.1 to 0.5 µM; on human σ2/TMEM97 receptor, below 0.1 µM.
As to `CC(C)(C)CCN1CCC2(CC1)CCN(S(=O)(=O)c1cnc(N3CCCC3=O)c(F)c1)CC2` [Example 141, 1-(5-((9-(3,3-Dimethylbutyl)-3,9-diazaspiro[5.5]undecan-3-yl)sulfonyl)-3-fluoropyridin-2-yl)pyrrolidin-2-one], the Ki at human σ1 receptor was 0.1 to 0.5 µM; at human σ2/TMEM97 receptor, below 0.1 µM.
As to `CN(Cc1ccccc1)C1CCN(S(=O)(=O)c2ccc(N3CCOC3=O)nc2)CC1` [Example 142, 3-(5-((4-(Benzyl(methyl)ami-no)piperidin-1-yl)sulfonyl)pyridin-2-yl)oxazolidin-2-one], the inhibition constant Ki is 0.1 to 0.5 µM on human σ1 receptor and below 0.1 µM at human σ2/TMEM97 receptor.
With `CC(C)(C)CN1CCC2(CC1)CCN(S(=O)(=O)c1ccc(N3CCOC3=O)nc1)CC2` [Example 143, 3-(5-((9-Neopentyl-3,9-diazaspiro[5.5]undecan-3-yl)sulfonyl)pyridin-2-yl)oxazolidin-2-one], the Ki on human σ1 receptor is above 1 µM; on human σ2/TMEM97 receptor, below 0.1 µM.
In the case of `O=C1OCCN1c1ccc(S(=O)(=O)N2CCC3(CCN(Cc4ccccc4)CC3)C2)cn1` [Example 144, 3-(5-((8-Benzyl-2,8-diazaspiro[4.5]decan-2-yl)sulfonyl)pyridin-2-yl)oxazolidin-2-one], the inhibition constant Ki on human σ1 receptor and on human σ2/TMEM97 receptor was 0.1 to 0.5 µM in each case.
As for `O=C1OCCN1c1ccc(S(=O)(=O)N2CCC3(CCCN(Cc4ccccc4F)C3)CC2)cn1` [Example 145, 3-(5-((2-(2-Fluorobenzyl)-2,9-diazaspiro[5.5]undecan-9-yl)sulfonyl)pyridin-2-yl)oxazolidin-2-one], the Ki at human σ1 receptor fell in the range of 0.5 to 1 µM; at human σ2/TMEM97 receptor, 0.1 to 0.5 µM.
Take `O=C1OCCN1c1ccc(S(=O)(=O)N2CCC3(CCCN(Cc4cc(F)ccc4F)C3)CC2)cn1` [Example 146, 3-(5-((2-(2,5-Difluorobenzyl)-2,9-diazaspiro[5.5]undecan-9-yl)sulfonyl)pyridin-2-yl)oxazolidin-2-one]: the Ki at human σ1 receptor and at human σ2/TMEM97 receptor was 0.5 to 1 µM throughout.
As for `O=C1OCCN1c1ccc(S(=O)(=O)N2CCC3(CCCN(Cc4ccccc4)C3)CC2)cn1` [Example 147, 3-(5-((2-Benzyl-2,9-diazaspiro[5.5]undecan-9-yl)sulfonyl)pyridin-2-yl)oxazolidin-2-one], the figures for the inhibitory constant (Ki) on human σ1 receptor and at human σ2/TMEM97 receptor were 0.5 to 1 µM and 0.1 to 0.5 µM, respectively.
The corresponding values for `CN(Cc1ccccc1)C1CCN(S(=O)(=O)c2ccc(N3CCCC3=O)nc2)CC1` [Example 148, 1-(5-((4-(Benzyl(methyl)ami-no)piperidin-1-yl)sulfonyl)pyridin-2-yl)pyrrolidin-2-one] are 0.1 to 0.5 µM and below 0.1 µM.
On to `O=C1OCCN1c1ccc(S(=O)(=O)N2CCC3(CCCN(CC4CCOCC4)C3)CC2)cn1` [Example 149, 3-(5-((2-((Tetrahydro-2H-pyran-4-yl)methyl)-2,9-diazaspiro[5.5]undecan-9-yl)sulfonyl)pyridin-2-yl)oxazolidin-2-one], for which the Ki was below 0.1 µM at human σ1 receptor and 0.1 to 0.5 µM on human σ2/TMEM97 receptor.
Regarding `CC(C)(C)CN1CCCC2(CCN(S(=O)(=O)c3ccc(N4CCOC4=O)nc3)CC2)C1` [Example 150, 3-(5-((2-Neopentyl-2,9-diazaspiro[5.5]undecan-9-yl)sulfonyl)pyridin-2-yl)oxazolidin-2-one], the Ki at human σ1 receptor was 0.5 to 1 µM; at human σ2/TMEM97 receptor, above 1 µM.
Regarding `N#Cc1ccc(CN2CCCC3(CCN(S(=O)(=O)c4ccc(N5CCOC5=O)nc4)CC3)C2)cc1F` [Example 151, 2-Fluoro-4-((9-((6-(2-oxooxazolidin-3-yl)pyridin-3-yl)sulfonyl)-2,9-diazaspiro[5.5]undecan-2-yl)methyl)benzonitrile], the inhibitory constant (Ki) on human σ1 receptor is 0.1 to 0.5 µM; at human σ2/TMEM97 receptor, below 0.1 µM.
Take `N#Cc1cc(CN2CCCC3(CCN(S(=O)(=O)c4ccc(N5CCOC5=O)nc4)CC3)C2)ccc1F` [Example 152, 2-Fluoro-5-((9-((6-(2-oxooxazolidin-3-yl)pyridin-3-yl)sulfonyl)-2,9-diazaspiro[5.5]undecan-2-yl)methyl)benzonitrile]: the inhibitory constant (Ki) at human σ1 receptor and on human σ2/TMEM97 receptor was above 1 µM each time.
Turning to `O=C1OCCN1c1ccc(S(=O)(=O)N2CCC3(CCN(CC4CCOCC4)CC3)C2)cn1` [Example 153, 3-(5-((8-((Tetrahydro-2H-pyran-4-yl)methyl)-2,8-diazaspiro[4.5]decan-2-yl)sulfonyl)pyridin-2-yl)oxazolidin-2-one], the Ki at human σ1 receptor and on human σ2/TMEM97 receptor was below 0.1 µM in each case.
Consider `CC(C)(C)CCN1CCCC2(CCN(S(=O)(=O)c3ccc(N4CCOC4=O)cn3)CC2)C1` [Example 154, 3-(6-((2-(3,3-Dimethylbutyl)-2,9-diazaspiro[5.5]undecan-9-yl)sulfonyl)pyridin-3-yl)oxazolidin-2-one], for which the Ki at human σ1 receptor and at human σ2/TMEM97 receptor was below 0.1 µM in each case.
Regarding `O=C1OCCN1c1ccc(S(=O)(=O)N2CCCC3(CCN(Cc4ccccc4)CC3)C2)cn1` [Example 155, 3-(5-((9-Benzyl-2,9-diazaspiro[5.5]undecan-2-yl)sulfonyl)pyridin-2-yl)oxazolidin-2-one], the Ki on human σ1 receptor and at human σ2/TMEM97 receptor was below 0.1 µM in each case.
As to `O=C1OCCN1c1ccc(S(=O)(=O)N2CCC3(CCN(Cc4cc(F)ccc4F)CC3)CC2)cn1` [Example 156, 3-(5-((9-(2,5-Difluorobenzyl)-3,9-diazaspiro[5.5]undecan-yl)sulfonyl)pyridin-2-yl)oxazolidin-3-2-one], the inhibition constant Ki was above 1 µM on human σ1 receptor and below 0.1 µM on human σ2/TMEM97 receptor.
For `N#Cc1cc(CN2CCC3(CC2)CCN(S(=O)(=O)c2ccc(N4CCOC4=O)nc2)CC3)ccc1F` [Example 157, 2-Fluoro-5-((9-((6-(2-oxooxazolidin-3-yl)pyridin-3-yl)sulfonyl)-3,9-diazaspiro[5.5]undecan-3-yl)methyl)benzonitrile], in that order: above 1 µM and below 0.1 µM.
Regarding `O=C1OCCN1c1ccc(S(=O)(=O)N2CCCC3(CCN(CC4CCOCC4)CC3)C2)cn1` [Example 158, 3-(5-((9-((Tetrahydro-2H-pyran-4-yl)methyl)-2,9-diazaspiro[5.5]undecan-2-yl)sulfonyl)pyridin-2-yl)oxazolidin-2-one], the inhibition constant (Ki) at human σ1 receptor and on human σ2/TMEM97 receptor was below 0.1 µM in each case.
`O=C1OCCN1c1ccc(S(=O)(=O)N2CCCC3(CCN(Cc4ccccc4F)CC3)C2)cn1` [Example 159, 3-(5-((9-(2-Fluorobenzyl)-2,9-diazaspiro[5.5]undecan-2-yl)sulfonyl)pyridin-2-yl)oxazolidin-2-one]: the Ki on human σ1 receptor and on human σ2/TMEM97 receptor was below 0.1 µM throughout.
Turning to `O=C1OCCN1c1ccc(S(=O)(=O)N2CCCC3(CCN(Cc4cc(F)ccc4F)CC3)C2)cn1` [Example 160, 3-(5-((9-(2,5-Difluorobenzyl)-2,9-diazaspiro[5.5]undecan-2-yl)sulfonyl)pyridin-2-yl)oxazolidin-2-one], the Ki on human σ1 receptor and on human σ2/TMEM97 receptor was below 0.1 µM in each case.
Take `N#Cc1cc(CN2CCC3(CCCN(S(=O)(=O)c4ccc(N5CCOC5=O)nc4)C3)CC2)ccc1F` [Example 161, 2-Fluoro-5-((2-((6-(2-oxooxazolidin-3-yl)pyridin-3-yl)sulfonyl)-2,9-diazaspiro[5.5]undecan-9-yl)methyl)benzonitrile]: the Ki on human σ1 receptor and at human σ2/TMEM97 receptor was below 0.1 µM in each case.
Turning to `O=C1OCCN1c1ccc(S(=O)(=O)N2CCC3(CCN(Cc4cc(F)ccc4F)CC3)C2)cn1` [Example 162, 3-(5-((8-(2,5-Difluorobenzyl)-2,8-diazaspiro[4.5]decan-2-yl)sulfonyl)pyridin-2-yl)oxazolidin-2-one], the Ki at human σ1 receptor is above 1 µM; on human σ2/TMEM97 receptor it was below 0.1 µM.
As to `O=C1OCCN1c1ccc(S(=O)(=O)N2CCC3(CCN(Cc4ccccc4F)CC3)C2)cn1` [Example 163, 3-(5-((8-(2-Fluorobenzyl)-2,8-diazaspiro[4.5]decan-2-yl)sulfonyl)pyridin-2-yl)oxazolidin-2-one], the inhibitory constant (Ki) on human σ1 receptor and on human σ2/TMEM97 receptor was 0.1 to 0.5 µM throughout.
